Data reported in patent publication US8629102B2, “3-hydroxyisothiazole 1-oxide derivatives” (Mochida Pharmaceutical Co., Ltd., priority 2011, dated 2014).

biological target: T1, GPR40 of human origin (Homo sapiens, UniProt O14842); test: Agonist action on GPR40 of human origin (intracellular Ca2+ change); type: cell-based; conditions: CHO cell strain stably expressing GPR40 of human origin; change in Ca2+ concentration, fluorescent calcium indicator
T1 construct: expressed in transfected cells
Summary of the method: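 CHO cells stably expressing human GPR40, cultured overnight, then loaded 1 h with Calcium 4 dye plus probenecid in HEPES-buffered HBSS. Compound added in 20 mM HEPES-HBSS; intracellular Ca2+ change read by fluorescence, EC50 from dose-response of fluorescence change.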

T1 sequence (O14842 whole entry): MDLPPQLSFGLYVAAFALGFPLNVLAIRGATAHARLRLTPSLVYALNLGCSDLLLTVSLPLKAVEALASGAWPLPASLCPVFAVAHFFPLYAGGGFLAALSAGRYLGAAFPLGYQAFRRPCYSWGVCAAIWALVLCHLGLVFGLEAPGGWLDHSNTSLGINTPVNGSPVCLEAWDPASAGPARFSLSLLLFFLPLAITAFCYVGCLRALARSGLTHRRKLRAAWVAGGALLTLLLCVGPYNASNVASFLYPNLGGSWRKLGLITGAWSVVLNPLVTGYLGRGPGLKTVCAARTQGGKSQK

Row | SMILES | EC50 [nM]
1 | [O-][s+]1nc(O)cc1-c1ccc(O[C@@H]2CCc3c(-c4cccc(C(F)(F)F)c4)cccc32)cc1 (stereo partly drawn) [Example 63, 5-(4-(((R)-4-(3-trifluoromethylphenyl)-2,3-dihydro-1H-inden-1-yl)oxy)phenyl)-3-hydroxyisothiazole 1-oxide] | 300 to 3000
2 | [O-][s+]1nc(O)cc1-c1ccc(O[C@@H]2CCc3c(-c4ccccc4C(F)(F)F)cccc32)cc1 (stereo partly drawn) [Example 64, 5-(4-(((R)-4-(2-trifluoromethylphenyl)-2,3-dihydro-1H-inden-1-yl)oxy)phenyl)-3-hydroxyisothiazole 1-oxide] | < 300
3 | [O-][s+]1nc(O)cc1-c1ccc(O[C@@H]2CCc3c(-c4ccccc4OC(F)(F)F)cccc32)cc1 (stereo partly drawn) [Example 65, 5-(4-(((R)-4-(2-trifluoromethoxyphenyl)-2,3-dihydro-1H-inden-1-yl)oxy)phenyl)-3-hydroxyisothiazole 1-oxide] | < 300
4 | [O-][s+]1nc(O)cc1-c1ccc(O[C@@H]2CCc3c(-c4cc(F)ccc4C(F)(F)F)cccc32)cc1 (stereo partly drawn) [Example 66, 5-(4-(((R)-4-(5-fluoro-2-trifluoromethylphenyl)-2,3-dihydro-1H-inden-1-yl)oxy)phenyl)-3-hydroxyisothiazole 1-oxide] | < 300
5 | [O-][s+]1nc(O)cc1-c1ccc(O[C@@H]2CCc3c(-c4cc(C(F)(F)F)ccc4F)cccc32)cc1 (stereo partly drawn) [Example 67, 5-(4-(((R)-4-(2-fluoro-5-trifluoromethylphenyl)-2,3-dihydro-1H-inden-1-yl)oxy)phenyl)-3-hydroxyisothiazole 1-oxide] | < 300
6 | [O-][s+]1nc(O)cc1-c1ccc(O[C@@H]2CCc3c(-c4cc(C(F)(F)F)ccc4Cl)cccc32)cc1 (stereo partly drawn) [Example 68, 5-(4-(((R)-4-(2-chloro-5-trifluoromethylphenyl)-2,3-dihydro-1H-inden-1-yl)oxy)phenyl)-3-hydroxyisothiazole 1-oxide] | 300 to 3000
7 | [O-][s+]1nc(O)cc1-c1ccc(O[C@@H]2CCc3c(-c4ccc(Cl)cc4C(F)(F)F)cccc32)cc1 (stereo partly drawn) [Example 69, 5-(4-(((R)-4-(4-chloro-2-trifluoromethylphenyl)-2,3-dihydro-1H-inden-1-yl)oxy)phenyl)-3-hydroxyisothiazole 1-oxide] | 300 to 3000
8 | CS(=O)(=O)c1ccccc1-c1cccc2c1CC[C@H]2Oc1ccc(-c2cc(O)n[s+]2[O-])cc1 (stereo partly drawn) [Example 70, 5-(4-(((R)-4-(2-(methylsulfonyl)phenyl)-2,3-dihydro-1H-inden-1-yl)oxy)phenyl)-3-hydroxyisothiazole 1-oxide] | < 300
9 | Cc1ccc(-c2cccc3c2CC[C@H]3Oc2ccc(-c3cc(O)n[s+]3[O-])cc2)cn1 (stereo partly drawn) [Example 71, 5-(4-(((R)-4-(6-methylpyridin-3-yl)-2,3-dihydro-1H-inden-1-yl)oxy)phenyl)-3-hydroxyisothiazole 1-oxide] | < 300
10 | Cc1cncc(-c2cccc3c2CC[C@H]3Oc2ccc(-c3cc(O)n[s+]3[O-])cc2)c1 (stereo partly drawn) [Example 72, 5-(4-(((R)-4-(5-methylpyridin-3-yl)-2,3-dihydro-1H-inden-1-yl)oxy)phenyl)-3-hydroxyisothiazole 1-oxide] | < 300
11 | [O-][s+]1nc(O)cc1-c1ccc(O[C@@H]2CCc3c(-c4cncc(Cl)c4)cccc32)cc1 (stereo partly drawn) [Example 73, 5-(4-(((R)-4-(5-chloropyridin-3-yl)-2,3-dihydro-1H-inden-1-yl)oxy)phenyl)-3-hydroxyisothiazole 1-oxide] | < 300
12 | [O-][s+]1nc(O)cc1-c1ccc(O[C@@H]2CCc3c(-c4ccc(Cl)nc4)cccc32)cc1 (stereo partly drawn) [Example 74, 5-(4-(((R)-4-(6-chloropyridin-3-yl)-2,3-dihydro-1H-inden-1-yl)oxy)phenyl)-3-hydroxyisothiazole 1-oxide] | < 300
13 | CC(C)c1ccc(-c2cccc3c2CC[C@H]3Oc2ccc(-c3cc(O)n[s+]3[O-])cc2)c(Cl)n1 (stereo partly drawn) [Example 76, 5-(4-(((R)-4-(6-isopropyl-2-chloropyridin-3-yl)-2,3-dihydro-1H-inden-1-yl)oxy)phenyl)-3-hydroxyisothiazole 1-oxide] | < 300
14 | NC(=O)c1ccc(-c2cccc3c2CC[C@H]3Oc2ccc(-c3cc(O)n[s+]3[O-])cc2)cn1 (stereo partly drawn) [Example 77, 5-((1R)-1-(4-(3-hydroxy-1-oxidoisothiazole-5-yl)phenoxy)-2,3-dihydro-1H-inden-4-yl)picolinamide] | < 300
15 | [O-][s+]1nc(O)cc1-c1ccc(O[C@@H]2CCc3c(-c4ccc(OCC5CC5)nc4)cccc32)cc1 (stereo partly drawn) [Example 78, 5-(4-(((R)-4-(6-(cyclopropylmethoxy)pyridin-3-yl)-2,3-dihydro-1H-inden-1-yl)oxy)phenyl)-3-hydroxyisothiazole 1-oxide] | < 300
16 | CC(=O)c1ccc(-c2cccc3c2CC[C@H]3Oc2ccc(-c3cc(O)n[s+]3[O-])cc2)s1 (stereo partly drawn) [Example 79, 1-(5-((1R)-1-(4-(3-hydroxy-1-oxidoisothiazol-5-yl)phenoxy)-2,3-dihydro-1H-inden-4-yl)thiophen-2-yl)ethanone] | < 300
17 | [O-][s+]1nc(O)cc1-c1ccc(O[C@@H]2CCc3c(-c4ccc(Cl)s4)cccc32)cc1 (stereo partly drawn) [Example 81, 5-(4-(((R)-4-(5-chlorothiophen-2-yl)-2,3-dihydro-1H-inden-1-yl)oxy)phenyl)-3-hydroxyisothiazole 1-oxide] | < 300

Row | SMILES | EC50 [nM]
18 | [O-][s+]1nc(O)cc1-c1ccc(O[C@@H]2CCc3c(-c4ccsc4)cccc32)cc1 (stereo partly drawn) [Example 82, 3-hydroxy-5-(4-(((R)-4-(thiophen-3-yl)-2,3-dihydro-1H-inden-1-yl)oxy)phenyl)isothiazole 1-oxide] | < 300
19 | [O-][s+]1nc(O)cc1-c1ccc(O[C@@H]2CCc3c(Oc4cccc(C(F)(F)F)c4)cccc32)cc1 (stereo partly drawn) [Example 84, 3-hydroxy-5-(4-(((R)-4-(3-(trifluoromethyl)phenoxy)-2,3-dihydro-1H-inden-1-yl)oxy)phenyl)isothiazole 1-oxide] | < 300
20 | N#Cc1cccc(Oc2cccc3c2CC[C@H]3Oc2ccc(-c3cc(O)n[s+]3[O-])cc2)c1 (stereo partly drawn) [Example 86, 3-(((1R)-1-(4-(3-hydroxy-1-oxidoisothiazol-5-yl)phenoxy)-2,3-dihydro-1H-inden-4-yl)oxy)benzonitrile] | < 300
21 | [O-][s+]1nc(O)cc1-c1ccc(O[C@@H]2CCc3c(Oc4ccc(C(F)(F)F)cc4)cccc32)cc1 (stereo partly drawn) [Example 87, 3-hydroxy-5-(4-(((R)-4-(4-(trifluoromethyl)phenoxy)-2,3-dihydro-1H-inden-1-yl)oxy)phenyl)isothiazole 1-oxide] | < 300
22 | [O-][s+]1nc(O)cc1-c1ccc(O[C@@H]2CCc3c(Oc4ccc(CCO)cc4)cccc32)cc1 (stereo partly drawn) [Example 88, 3-hydroxy-5-(4-(((R)-4-(4-(2-hydroxyethyl)phenoxy)-2,3-dihydro-1H-inden-1-yl)oxy)phenyl)isothiazole 1-oxide] | < 300
23 | [O-][s+]1nc(O)cc1-c1ccc(O[C@@H]2CCc3c(Oc4cccc(CCO)c4)cccc32)cc1 (stereo partly drawn) [Example 89, 3-hydroxy-5-(4-(((R)-4-(3-(2-hydroxyethyl)phenoxy)-2,3-dihydro-1H-inden-1-yl)oxy)phenyl)isothiazole 1-oxide] | < 300
24 | [O-][s+]1nc(O)cc1-c1ccc(O[C@@H]2CCc3c(Oc4ccccc4)cccc32)cc1 (stereo partly drawn) [Example 90, 3-hydroxy-5-(4-(((R)-4-phenoxy-2,3-dihydro-1H-inden-1-yl)oxy)phenyl)isothiazole 1-oxide] | < 300
25 | COc1cccc(Oc2cccc3c2CC[C@H]3Oc2ccc(-c3cc(O)n[s+]3[O-])cc2)c1 (stereo partly drawn) [Example 91, 3-hydroxy-5-(4-(((R)-4-(3-methoxyphenoxy)-2,3-dihydro-1H-inden-1-yl)oxy)phenyl)isothiazole 1-oxide] | < 300
26 | COc1ccc(Oc2cccc3c2CC[C@H]3Oc2ccc(-c3cc(O)n[s+]3[O-])cc2)cc1 (stereo partly drawn) [Example 92, 3-hydroxy-5-(4-(((R)-4-(4-methoxyphenoxy)-2,3-dihydro-1H-inden-1-yl)oxy)phenyl)isothiazole 1-oxide] | < 300
27 | Cc1ccc(Oc2cccc3c2CC[C@H]3Oc2ccc(-c3cc(O)n[s+]3[O-])cc2)cc1 (stereo partly drawn) [Example 93, 3-hydroxy-5-(4-(((R)-4-(p-tolyloxy)-2,3-dihydro-1H-inden-1-yl)oxy)phenyl)isothiazole 1-oxide] | < 300
28 | Cc1cccc(Oc2cccc3c2CC[C@H]3Oc2ccc(-c3cc(O)n[s+]3[O-])cc2)c1 (stereo partly drawn) [Example 94, 3-hydroxy-5-(4-(((R)-4-(m-tolyloxy)-2,3-dihydro-1H-inden-1-yl)oxy)phenyl)isothiazole 1-oxide] | < 300
29 | Cc1ccccc1Oc1cccc2c1CC[C@H]2Oc1ccc(-c2cc(O)n[s+]2[O-])cc1 (stereo partly drawn) [Example 95, 3-hydroxy-5-(4-(((R)-4-(o-tolyloxy)-2,3-dihydro-1H-inden-1-yl)oxy)phenyl)isothiazole 1-oxide] | < 300
30 | Cc1cccc(C)c1Oc1cccc2c1CC[C@H]2Oc1ccc(-c2cc(O)n[s+]2[O-])cc1 (stereo partly drawn) [Example 96, 5-(4-(((R)-4-(2,6-dimethylphenoxy)-2,3-dihydro-1H-inden-1-yl)oxy)phenyl)-3-hydroxyisothiazole 1-oxide] | < 300
31 | CC(C)(O)CCOc1ccc(Oc2cccc3c2CC[C@H]3Oc2ccc(-c3cc(O)n[s+]3[O-])cc2)cn1 (stereo partly drawn) [Example 97, 3-hydroxy-5-(4-(((R)-4-((6-(3-hydroxy-3-methylbutoxy)pyridin-3-yl)oxy)-2,3-dihydro-1H-inden-1-yl)oxy)phenyl)isothiazole 1-oxide] | < 300
32 | CCOCCOc1ccc(Oc2cccc3c2CC[C@H]3Oc2ccc(-c3cc(O)n[s+]3[O-])cc2)cn1 (stereo partly drawn) [Example 98, 5-(4-(((R)-4-((6-(2-ethoxyethoxy)pyridin-3-yl)oxy)-2,3-dihydro-1H-inden-1-yl)oxy)phenyl)-3-hydroxyisothiazole 1-oxide] | < 300
33 | [O-][s+]1nc(O)cc1-c1ccc(O[C@@H]2CCc3c(Oc4cccc(OC(F)(F)F)c4)cccc32)cc1 (stereo partly drawn) [Example 99, 3-hydroxy-5-(4-(((R)-4-(3-(trifluoromethoxy)phenoxy)-2,3-dihydro-1H-inden-1-yl)oxy)phenyl)isothiazole 1-oxide] | < 300
